Experimental findings from PubChem BioAssay (NCI) are described below.

Molecules are shown by their SMILES. Values joined by “and” are separate entries in the source; they are usually repeats but may differ in a detail not shown here. Equal values may be shown once.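 Tested at 5 concentrations; 48 h exposure; 96-well plates; endpoints linearly interpolated, else capped at highest concentration. The concentration for 50% growth inhibition is given as GI50. TGI is the concentration that stops growth completely.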

Test systems include A498 renal; SF-268 CNS; U251 CNS; IGROV1 ovarian; NCI-H460 lung; UO-31 renal; SF-539 CNS; M14 melanoma; EKVX NSCLC; SW-620 colon.
Holding throughout (experiment): NCI tumour cell line growth inhibition, 48 h

For the molecule `NC1=N/C(=C2/CCNC(=O)c3[nH]c(Br)cc32)C(=O)N1`, the GI50 is 45.9 µM and > 100 µM in the test on A498 renal; 30.4 µM and 97 µM in the test on IGROV1 ovarian; 4.29 µM and 13 µM in the test with SF-539 CNS; 2.71 µM and 6.12 µM with SW-620 colon. Also, the TGI in the test on A498 renal was more than 100 µM; with SF-268 CNS, 59.9 µM and > 69.6 µM; in the test on U251 CNS, more than 100 µM; with IGROV1 ovarian, more than 100 µM; in the test on NCI-H460 lung, more than 100 µM; with UO-31 renal, > 73 µM and 29.8 µM. In addition, the TGI was 17.3 µM and 35.5 µM in the test on SF-539 CNS; more than 100 µM with M14 melanoma; more than 100 µM with EKVX NSCLC; more than 100 µM in the test on SW-620 colon.
With `COc1ccc2c(c1)CCC1C2CC[C@]2(C)/C(=N/OC(=O)Cc3ccccc3)CCC12` (some centres undefined), the GI50 in the test on A498 renal is 21.6 µM; in the test on SF-268 CNS, 18.7 µM; in the test on U251 CNS, 19.6 µM; with IGROV1 ovarian it was 14.7 µM; with NCI-H460 lung, 14.6 µM; in the test with UO-31 renal, 19.2 µM. Besides, the GI50 is 21.4 µM in the test with SF-539 CNS, 16.8 µM in the test on M14 melanoma, 19.4 µM with EKVX NSCLC and 35.5 µM in the test on SW-620 colon. Moreover, the TGI in the test on A498 renal was found to be 45.8 µM; in the test with SF-268 CNS, 34.4 µM; in the test with U251 CNS, 37.4 µM; with IGROV1 ovarian it was 29.8 µM; with NCI-H460 lung, 30.4 µM; in the test on UO-31 renal, 43.8 µM. Further, the TGI was 42.8 µM in the test on SF-539 CNS, 32.9 µM with M14 melanoma, 44.1 µM with EKVX NSCLC and more than 100 µM with SW-620 colon.
Consider `COc1cc(/C=C2\COc3ccc(O)c(O)c3C2=O)cc(OC)c1`, for which the GI50 in the test with A498 renal is 5.12 µM; in the test on SF-268 CNS, 1.68 µM; with U251 CNS, 0.861 µM; in the test on IGROV1 ovarian, 1.36 µM; in the test with NCI-H460 lung it was 1.81 µM; in the test with UO-31 renal it was 1.02 µM. The GI50 in the test on SF-539 CNS is 1.84 µM; in the test on M14 melanoma, 1.56 µM; with EKVX NSCLC it was 2.12 µM; in the test on SW-620 colon, 1.22 µM. In addition, the TGI with A498 renal was determined as 19.1 µM; with SF-268 CNS it was 5.34 µM; in the test with U251 CNS, 4.09 µM; in the test on IGROV1 ovarian it was 5.22 µM; with NCI-H460 lung, 4.7 µM; in the test on UO-31 renal it was 2.29 µM. For the same molecule, the TGI in the test on SF-539 CNS worked out at 3.95 µM; with M14 melanoma it was 4.55 µM; in the test on EKVX NSCLC, 5.53 µM; with SW-620 colon, 4 µM.
As for `O=C1OC(O)C(Oc2ccc(Cl)cc2)=C1Cl` (centres undefined), the TGI with A498 renal, with SF-268 CNS, with U251 CNS, in the test on IGROV1 ovarian, with NCI-H460 lung and in the test on UO-31 renal was more than 100 µM each time. In addition, the TGI in the test on SF-539 CNS, in the test on M14 melanoma, with EKVX NSCLC and in the test with SW-620 colon was more than 100 µM throughout.
On to `COc1ccc(/C=C/c2n[nH]c3ccc(N4CCOC4=O)cc23)cc1`, for which the GI50 is 3.57 µM in the test with A498 renal; 3.64 µM with SF-268 CNS; 2.51 µM in the test on U251 CNS; 2.53 µM in the test with IGROV1 ovarian; 1.95 µM with NCI-H460 lung; 2.52 µM in the test on UO-31 renal. The GI50 with SF-539 CNS was 0.99 µM; with M14 melanoma, 1.88 µM; in the test with EKVX NSCLC, 3.39 µM; with SW-620 colon, 1.64 µM. Besides, the TGI with A498 renal was 7.01 µM; with SF-268 CNS, more than 100 µM; with U251 CNS, more than 100 µM; in the test on IGROV1 ovarian, more than 100 µM; in the test with NCI-H460 lung, 11.8 µM; with UO-31 renal it was 9.92 µM. Moreover, the TGI turned out to be 3.33 µM in the test with SF-539 CNS, 10.5 µM in the test with M14 melanoma, 36.1 µM in the test with EKVX NSCLC and 10.8 µM in the test with SW-620 colon.
As to `COC(=O)CCC/C=C\C[C@H]1C=CC(=O)/C1=C/C[C@@H](O)C/C=C\CC(F)(F)F`, the GI50 with A498 renal is 2.47 µM; in the test with SF-268 CNS, 2.84 µM; in the test on U251 CNS, 1.79 µM; in the test on IGROV1 ovarian, 2.78 µM; with NCI-H460 lung it was 3.04 µM; with UO-31 renal, 1.7 µM. Also, the GI50 in the test with SF-539 CNS is 3.24 µM; with M14 melanoma it was 1.5 µM; in the test with EKVX NSCLC, 4.04 µM; in the test with SW-620 colon, 1.89 µM. Further, the TGI with A498 renal was determined as 4.57 µM; in the test on SF-268 CNS, 13.8 µM; with U251 CNS, 4.32 µM; with IGROV1 ovarian, 7.6 µM; in the test with NCI-H460 lung, 10.6 µM; in the test on UO-31 renal it was 3.36 µM. Also, the TGI turned out to be 9.09 µM in the test with SF-539 CNS, 4.39 µM in the test with M14 melanoma, 14.6 µM in the test with EKVX NSCLC and 12.4 µM with SW-620 colon.
Turning to `C=C(C)[C@@H]1CC[C@]2(C)[C@H](CC[C@@H]3[C@H]4[C@H]5OC[C@@]4(CCC5(C)C)CC[C@]32C)[C@@]1(C)CCCN`, the GI50 with A498 renal is 1.72 µM; with SF-268 CNS, 1.81 µM; in the test with U251 CNS, 1.67 µM; in the test with IGROV1 ovarian, 1.8 µM; in the test on NCI-H460 lung it was 1.8 µM; in the test with UO-31 renal, 1.42 µM. The GI50 was 1.78 µM with SF-539 CNS, 1.79 µM in the test on M14 melanoma, 1.81 µM in the test on EKVX NSCLC and 1.77 µM in the test with SW-620 colon. Besides, the TGI with A498 renal came out at 3.12 µM; with SF-268 CNS, 3.8 µM; in the test on U251 CNS, 3.15 µM; in the test with IGROV1 ovarian it was 3.36 µM; in the test with NCI-H460 lung, 3.39 µM; with UO-31 renal it was 2.76 µM. Also, the TGI with SF-539 CNS was 3.22 µM; in the test with M14 melanoma, 3.58 µM; with EKVX NSCLC it was 3.31 µM; in the test on SW-620 colon it was 3.48 µM.
Consider `NS(=O)(=O)c1ccc(N2N=C3c4ccccc4CC3C2c2ccc(Cl)cc2)cc1` (centres undefined), for which the GI50 in the test on A498 renal was 2.55 µM; with SF-268 CNS it was 22.1 µM; in the test on U251 CNS it was 20.2 µM; in the test on IGROV1 ovarian, 3.48 µM; with NCI-H460 lung it was 19.7 µM; with UO-31 renal it was 7.88 µM. For the same molecule, the GI50 with SF-539 CNS was 9.07 µM; in the test with M14 melanoma it was 10.1 µM; in the test on EKVX NSCLC it was 14.1 µM; in the test on SW-620 colon, 4.71 µM. Besides, the TGI in the test on A498 renal was 6.6 µM; in the test on SF-268 CNS it was 54 µM; with U251 CNS, 42.5 µM; in the test with IGROV1 ovarian, 19.6 µM; in the test with NCI-H460 lung, 41.8 µM; with UO-31 renal, 23.8 µM. Further, the TGI was 30.8 µM in the test with SF-539 CNS, 36.1 µM with M14 melanoma, 58.9 µM in the test with EKVX NSCLC and 29.8 µM with SW-620 colon.
